Series [1] relates to Phosphatidylserine (C2) Binding Site. The experiment in a line: 3H-DCPLA-ME binding to rat brain slices with C1 and C2 competitors (film-autoradiography). To be noted: rat brain slices. The procedure:
To determine the binding site of DCPLA-ME, ^3H-DCPLA-ME was incubated with rat brain slices in the absence and presence of known C1 and C2 competitors. More specifically, rat brain sections were fixed with formaldehyde, sliced, and incubated with (1)^3H-DCPLA-ME alone; (2)^3H-DCPLA-ME with DCPLA; (3)^3H-DCPLA-ME with Phorbol ester; or (4)^3H-DCPLA-ME and Bryostatin 1. After incubation, the slices were washed with a buffer made of 130 mM NaCl, 5 mM MgCl, 5 mM KCl, 1 mM EGTA, and 0.1% bovine serum albumin in 10 mM HEPES-NaOH, pH 7.4, dried, and analyzed with film-autoradiography.

Series [2] relates to cultured primary rat hippocampal neurons. Nature of the series: Neuroprotection against ASPD induced toxicity, MTT assay, primary neurons. It is filed as cell-based. Particulars: 50 nM ASPD, 20 hr, activator 0.27 nM. As for the experimental part:
(§1) Viability of cells was measured by MTT assay. MTT (i.e., 3-(4,5-dimethylthiazol-2-yl)-2,5-diphenyltetrazolium bromide) is a tetrazolium salt that is cleaved to formazan by the succinate dehydrogenase, which is only active in viable cells. After solubilization of the formazan, the amount of dye can be quantified with a microplate reader at 570 nm along with a reference of 630 nm. For the MTT assay, 5×10^4 primary rat hippocampal neurons from 18-day-old embryonic Sprague-Dawley rat brains or SH-SY5Y cells were plated on each well of 24-well plates coated with poly-D-lysine. After treatment, the cells were washed with 1× PBS and were incubated with 200 μl of 1 mg/ml MTT solution (Sigma, USA) at 37° C. for 2 hr. Then the MTT-solution was removed and the cells were lysed with 200 μl isopropanol containing 0.04 M HCl and […] for 10 min. Finally, the reading was taken at 570 nm and 630 nm. All the samples were done in triplicate and the data were represented as the percentage of control.
Bryostatin 1, DCPLA, and DCPLA-ME were tested against ASPD-induced cytotoxicity to determine their neuroprotective efficacy.
Background: Tetrazolium dyes change colour on reduction, which living cells bring about.

Series [3] concerns primary human cortical neurons. Nature of the series: 40 day culture of human primary cortical neurons: survival, synapses, branching. It is filed as cell-based. To be noted: 0.27 nM. As for the experimental part: To examine the effects of PKC-ε activation, cultured human cortical neurons in serum-free artificial medium were exposed to 100 nM DCPLA-ME added every three days, along with 50% medium replacement, for 40 days. More specifically, human primary cortical neurons were grown in Neuronal Medium (ScienCell Cat No#1521) containing neuronal growth supplement (NGS) (Sciencell Cat No#1562).
Cells were plated on poly-l-lysine (0.001%) coated plates at a density of >10000 cells/cm2. Half of the media was replaced by new media every 3 days. DCPLA-ME was dissolved in 100% ethanol and added at 100 nM final concentration. Fresh DCPLA-ME (100 nM) was added every 3 days during media change. The experiments were continued for 40 days.
Human primary neurons (ScienCell Research Laboratories, USA) were thawed and plated on poly-L-lysine coated plates at a density of 10,000 cells per cm^2 and were maintained in neuronal medium (DMEM+high glucose+neuronal growth supplement, ScienCell Research Laboratories, USA) following the recommended method. Primary human neurons were then treated with either DCPLA-ME (100 nM) or bryostatin 1 (0.27 nM) for 40 days. Fresh drug was added every third day with 50% media change.

Series [4] relates to rat primary hippocampal neurons. Nature of the series: Neurotoxic effect of Aβ1-42 oligomers, MTT viability assay. Particulars: 20 hr. It is filed as cell-based. As for the experimental part:
Amylospheroids (ASPDs) and Aβ monomers were prepared following Hoshi, M., et al. (2003) Proc Natl Acad Sci USA 100, 6370-6375, and Noguchi, A., et al. (2009) J Biol Chem 284, 32895-32905. Briefly, Aβ1-42 was dissolved in 1,1,1,3,3,3-hexafluoro-2-propanol and incubated overnight at 4° C. and then 3 hr at 37° C. The dissolved Aβ1-42 was then lyophilized in 1.5 ml polypropylene centrifuge tubes at 40 nmol/tube concentration. For preparing the ASPDs, the lyophilized Aβ was dissolved in phosphate buffered saline (PBS) without Ca^2+ or Mg^2+ at less than 50 μM concentration and rotated for 14 hr at 4° C. After incubation, the Aβ solution was purified using a 100 kDa molecular mass cutoff filter (Amicon Ultra, Millipore) and the high-molecular weight fraction was saved to obtain the most toxic ASPDs. Aβ derived diffusible ligands (ADDLs) were produced as previously described. See Lambert, M. P et al., Proc. Natl. Acad. Sci. USA, 1998, 95: 6448-6453. Briefly, Aβ1-42 was solubilized at 5 mM in dimethyl sulfoxide, diluted to 100 μM in F12k medium and was incubated at 4° C. for 24 hr. The solution was centrifuged at 14000×g for 10 min at 4° C. and the supernatant was used as the ADDLs.
as §1
To assess the neurotoxic effect of different sized oligomers, rat primary hippocampal neurons were treated with variable concentrations of these Aβ1-42 species for 20 hr. Viability of the treated cells was compared to untreated cells using the MTT assay described above.

Series [5] has as its system PKC-ε. The experiment in a line: PKC-ε translocation to membrane in SH-SY5Y neuroblastoma cells (Western Blot). The format is cell-based, human. Particulars: 1 μM (20-fold higher than ASPD), relative to control. As for the experimental part: (§2) Cells were harvested in homogenizing buffer containing 10 mM Tris-Cl (pH 7.4), 1 mM PMSF (phenylmethylsulfonyl fluoride), 1 mM EGTA, 1 mM EDTA, 50 mM NaF, and 20 μM leupeptin, and were lysed by sonication. The homogenate was centrifuged at 100,000×g for 15 min at 4° C. to obtain the cytosolic fraction (supernatant) and membrane (pellet). The pellet was resuspended in the homogenizing buffer by sonication. For whole cell protein isolation from primary neurons, the homogenizing buffer contained 1% Triton X-100. Protein concentration was measured using the Coomassie Plus (Bradford) Protein Assay kit (Pierce, USA). Following quantification, 20 μg of protein from each sample was subjected to SDS-PAGE analysis in a 4-20% gradient Tris-Glycine gel (Invitrogen, USA). The separated protein was then transferred to a nitrocellulose membrane. The membrane was blocked with 5% BSA at room temperature for 15 min and was incubated with primary antibody overnight at 4° C. After the incubation, it was washed three times with TBS-T (Tris Buffered Saline-Tween 20) and further incubated with alkaline phosphatase conjugated secondary antibody (Jackson Immunoresearch Laboratories, USA) at 1:10000 dilution for 45 min. The membrane was finally washed three times with TBS-T and developed using the 1-step NBT-BCIP substrate (Pierce, USA). The blot was imaged in an ImageQuant RT-ECL (GE Life Sciences, Piscataway, N.J.) and densitometric quantification was performed using IMAL software (Blanchette Rockefeller Neurosciences Institute, Morgantown, W. Va.). For translocation assays, PKC activation was represented as the percentage of total protein in the membrane (membrane/cytosol+membrane).
Background: Immunoblotting shows a protein as a band on a membrane.

The test system of series [6] is synaptophysin. The experiment in a line: Synaptophysin expression in primary hippocampal neurons (immunofluorescence, Western Blot). The format is cell-based, rat. Particulars: 1 μM, 20 hr. The procedure:
(§3) Cells were grown in two chambered slides (Nunc, USA) at low density. For immunofluorescence staining, the cells were washed with PBS (pH 7.4) and fixed with 4% paraformaldehyde for 4 min. Following fixation, the cells were blocked and permeabilized with 5% serum and 0.3% Triton X-100 in 1×PBS for 30 min. Cells were washed three times with 1×PBS and incubated with primary antibodies for 1 hr at 1:100 dilution. After the incubation, the slides were again washed three times in 1×PBS and were incubated with the FITC anti-mouse IgG and Rhodamine anti-rabbit IgG for 1 hr at 1:400 dilution. The cells were further washed and stained with DAPI (4′,6-diamidino-2′-phenylindole, dihydrochloride) (Thermo Scientific, USA) to stain the nucleus. Finally, the slides were washed and mounted in Pro Long Gold antifade mounting solution (Invitrogen, USA) and were viewed under a LSM 710 Meta confocal microscope (Zeiss) at 350 nm, 490 nm, and 540 nm excitation and 470 nm, 525 nm, and 625 nm emission for DAPI, FITC, and Rhodamine respectively. Six individual fields at 63× oil lens magnification were analyzed for the mean fluorescence intensity (MFI) in each channel.
as §2
(§4) To estimate the synaptic damage caused by the ASPDs on primary hippocampal neurons, the expression of synaptophysin (a presynaptic marker) and PSD-95 (a postsynaptic marker) was measured by immunofluorescence staining. […] Following a 20 hr incubation period, the cells were stained for nucleus, PSD-95, and synaptophysin. Expression levels were calculated as the change of percentage in mean fluorescence intensity compared to untreated cells.
(§5) Primary neurons, treated and untreated, were immunostained for MAP-2, synaptophysin, and PSD-95 to determine the synaptic integrity. […] Following a 20 hr incubation period, the cells were stained for MAP-2, PSD-95, and synaptophysin as described above.

Series [7] has as its system PSD-95. Nature of the series: PSD-95 expression in primary hippocampal neurons (immunofluorescence). The format is cell-based, rat. To be noted: 1 μM, 20 hr. The procedure:
as §3, §4, §5

Three compounds from US9163032B2, “Esters of DCPLA and methods of treatment using the same” (Blanchette Rockefeller Neurosciences Institute, priority 2011, dated 2015) can be followed below.

Values joined by “and” are separate entries in the source; they are usually repeats but may differ in a detail not shown here. Identical values can stand only once.

For `CCC/C=C/C=C/C(=O)O[C@H]1/C(=C/C(=O)OC)C[C@H]2C[C@H]([C@@H](C)O)OC(=O)C[C@H](O)C[C@@H]3C[C@H](OC(C)=O)C(C)(C)[C@](O)(C[C@@H]4C/C(=C/C(=O)OC)C[C@H](/C=C/C(C)(C)[C@]1(O)O2)O4)O3` [Bryostatin 1], in series [1] (30 nM competitor), the “3H-DCPLA-ME binding, 30 nM competitor” value is given as 100%. The “3H-DCPLA-ME binding, 1 μM competitor” value in series [1] (1 μM competitor) stood at 77%. Further, the “viability of ASPD-treated primary neurons” value in series [2] was found to be 73.23±3.6%. In addition, the “co-localized staining of PSD-95 and synaptophysin in puncta” value in series [3] (30 day old neurons) was “increased co-localized staining”. In series [3] (40 days), the “Immunostaining of PSD-95 and synaptophysin from Western blots” value is “significantly higher”.
As for “ADDL: Aβ derived diffusible ligands prepared from Aβ1-42, containing 6.5 monomers on average”, the “Viability of primary neuron” value in series [4] (50 nM) is 91.15 ± 1.44 % of control; in series [4] (500 nM) it was 79.01 ± 11.32 % of control; in series [4] (1000 nM (1 μM)), 50.98±3.8 % of control and 49.02 ± 7.26 % of control. In series [5], this compound registered a PKC-ε membrane translocation of 80.82±4.025%. The “synaptophysin mean fluorescence intensity” value in series [6] was 75.64±4.84 % of control.
For Aβ Monomer: monomeric Aβ1-42, in series [5], the PKC-ε membrane translocation result is on record as “did not affect translocation”. The “synaptophysin mean fluorescence intensity” value in series [6] is given as “did not change”. In series [7], the PSD-95 expression result is listed as “did not change”.
